# Experimental data reported in patent US9518004B2, “Reduced coenzyme Q10 derivative and method for production thereof” (KANEKA CORPORATION, priority 2012, dated 2016).
# Test: Oral absorbability in rats: overall coenzyme Q10 concentration in plasma by HPLC after oral administration (AUC)
# Parameters: species or system Spregue-Dawley rats
# Settings: rat, in vivo, 57.8 umol/kg
# Protocol: (§1) To seven-weeks old male Spregue-Dawley rats (obtained from Japan SLC, Inc.) were orally administered the derivatives of reduced coenzyme Q10 obtained in Examples 3, 4 and 5 and the starting reduced coenzyme Q10 as control each in 57.8 μmol/kg (50 mg/kg in terms of reduced coenzyme Q10). Blood was extracted from each rat after 1, 2, 4, 8 and 24 hours after administration of each sample. Each extracted blood was centrifuged, so that plasma was obtained. Then, oxidation treatment of reduced coenzyme Q10 in the plasma and extraction treatment of oxidized coenzyme Q10 were performed, and then the overall coenzyme Q10 concentration in the plasma was measured as oxidized coenzyme Q10 by using HPLC.
# as §1, with “derivative” for “derivatives”, “Referential Example 1” for “Examples 3, 4 and 5”
compound,measurement,value
"COc1c(OC(C)=O)c(C)c(CC=C(C)CCC=C(C)CCC=C(C)CCC=C(C)CCC=C(C)CCC=C(C)CCC=C(C)CCC=C(C)CCC=C(C)CCC=C(C)C)c(OC(C)=O)c1OC [Bisacetyl derivative, Bisacetyl Derivative]","AUC (area under the blood concentration-time curve) as compared with reduced coenzyme Q10, in words",lower
